Measurements as given in ChEMBL document CHEMBL1201862, “PubChem BioAssay data set” (2004).
Activity calls are given as the source filed them.

How the values were obtained:
[1] = viability loss in Vero cells – cytotoxicity control for Vif-APOBEC3G degradation inhibitor project, dose response (AID 1117358); type: functional; details: Vero
[2] = molecular target: NADPH oxidase 1 (Homo sapiens, UniProt Q9Y5S8); assay: Late-stage luminescence-based cell-based dose response assay to identify inhibitors of NADPH oxidase 1 (NOX1): Synthesized analogs.; type: functional
Sequence of NADPH oxidase 1 (Q9Y5S8 whole entry): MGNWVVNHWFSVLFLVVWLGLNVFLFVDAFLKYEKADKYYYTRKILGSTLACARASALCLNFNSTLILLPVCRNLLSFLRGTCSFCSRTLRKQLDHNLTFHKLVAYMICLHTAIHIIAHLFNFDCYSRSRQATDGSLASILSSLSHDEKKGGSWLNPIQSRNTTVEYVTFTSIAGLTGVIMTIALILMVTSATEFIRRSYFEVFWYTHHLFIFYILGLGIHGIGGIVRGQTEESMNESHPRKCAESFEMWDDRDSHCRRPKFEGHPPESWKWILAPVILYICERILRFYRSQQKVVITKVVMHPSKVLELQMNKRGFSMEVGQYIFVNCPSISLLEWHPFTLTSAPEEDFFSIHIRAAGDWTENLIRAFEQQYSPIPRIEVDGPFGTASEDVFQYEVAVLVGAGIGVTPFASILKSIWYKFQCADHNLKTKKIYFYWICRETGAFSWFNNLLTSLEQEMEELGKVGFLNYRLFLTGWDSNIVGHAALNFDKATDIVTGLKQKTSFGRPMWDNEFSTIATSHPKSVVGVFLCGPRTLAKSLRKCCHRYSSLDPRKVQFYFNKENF

[3] = molecular target: Transthyretin (Homo sapiens, UniProt P02766); assay: Luminescence-based cell-based high throughput dose response assay to identify activators of Transthyretin (TTR) transcription.; type: functional
[4] = molecular target: E3 ubiquitin-protein ligase UHRF1 (Homo sapiens, UniProt Q96T88); assay: Counterscreen for inhibitors of 5-meCpG-binding domain protein 2 (MBD2): TRFRET-based biochemical high throughput dose response assay to identify inhibitors of binding of ubiquitin-like with PHD and ring finger domains 1 (UHRF1) to methylated oligonucleotide.
Sequence of E3 ubiquitin-protein ligase UHRF1 (Q96T88 whole entry, the tested form may be a part): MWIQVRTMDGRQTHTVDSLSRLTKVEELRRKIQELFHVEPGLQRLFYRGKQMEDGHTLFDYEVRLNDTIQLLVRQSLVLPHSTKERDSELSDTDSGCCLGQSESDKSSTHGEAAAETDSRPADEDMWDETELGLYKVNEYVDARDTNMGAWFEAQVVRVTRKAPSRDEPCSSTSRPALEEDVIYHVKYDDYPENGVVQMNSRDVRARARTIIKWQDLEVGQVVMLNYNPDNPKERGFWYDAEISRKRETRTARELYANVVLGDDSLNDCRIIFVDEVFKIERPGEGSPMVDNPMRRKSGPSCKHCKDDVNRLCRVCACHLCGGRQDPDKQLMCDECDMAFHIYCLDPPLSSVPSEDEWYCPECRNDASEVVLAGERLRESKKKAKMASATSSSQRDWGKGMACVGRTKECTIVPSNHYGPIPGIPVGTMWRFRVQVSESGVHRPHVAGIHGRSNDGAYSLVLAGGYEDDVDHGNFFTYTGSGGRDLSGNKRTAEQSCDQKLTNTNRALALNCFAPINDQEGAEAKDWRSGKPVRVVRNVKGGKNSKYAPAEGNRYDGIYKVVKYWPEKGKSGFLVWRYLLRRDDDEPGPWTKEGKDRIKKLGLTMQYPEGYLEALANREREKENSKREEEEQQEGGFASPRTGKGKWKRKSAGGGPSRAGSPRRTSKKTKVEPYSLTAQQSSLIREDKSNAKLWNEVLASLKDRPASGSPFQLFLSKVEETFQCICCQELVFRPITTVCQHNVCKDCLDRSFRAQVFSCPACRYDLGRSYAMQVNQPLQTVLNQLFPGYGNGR

[5] = P. falciparum Dd2 growth inhibitors, dose response, SYBR Green, cherry-picked samples (AID 1159567); type: functional, cell-based
[6] = molecular target: Paired box protein Pax-8 (Homo sapiens, UniProt Q06710); assay: PAX8 transcriptional activity inhibition in RMG-I – RMG-I cells, luciferase, cherry-pick, dose response (AID 687027); type: functional, cell-based;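 also: luciferase reporter driven by Pax8 target thyroperoxidase promoter measured by SteadyGlo luminescence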
Sequence of Paired box protein Pax-8 (Q06710 whole entry): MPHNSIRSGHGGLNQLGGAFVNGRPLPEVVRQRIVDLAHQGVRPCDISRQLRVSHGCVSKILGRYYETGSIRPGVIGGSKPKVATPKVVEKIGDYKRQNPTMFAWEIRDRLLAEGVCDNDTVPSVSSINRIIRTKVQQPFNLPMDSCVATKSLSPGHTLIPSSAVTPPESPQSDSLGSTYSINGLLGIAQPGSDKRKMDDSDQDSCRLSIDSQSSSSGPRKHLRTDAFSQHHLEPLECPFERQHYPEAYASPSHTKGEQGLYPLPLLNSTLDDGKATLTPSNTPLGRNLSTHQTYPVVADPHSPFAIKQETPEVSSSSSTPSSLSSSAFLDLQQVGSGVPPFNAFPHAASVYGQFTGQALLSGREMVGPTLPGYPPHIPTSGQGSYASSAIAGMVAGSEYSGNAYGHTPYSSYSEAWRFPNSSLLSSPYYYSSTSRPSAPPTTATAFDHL

[7] = reduced cellular PGC1a acetyl-lysine signal – cell-based, cherry-picked samples, dose response (AID 720514); type: functional;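 also: potency may reflect raised or lowered acetylation signal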
[8] = toxicity to human hepatoma HepG2 cells – cell-based, cherry-picked samples, cytotoxicity control, dose response (AID 1159577); type: functional

In the case of `CC1CCCCN1C(=O)c1ccc(S(=O)(=O)N2CCCCC2C)cc1` (stereo not drawn), the CC50 [1] is reported as > 40 µM (active).

With `CC(=NNc1cccc(C(=O)O)c1)c1ccc2c(c1)Nc1ccccc1S2` the IC50 [2] was 0.305 µM (active).

In the case of `Cc1cccc(N(C)c2ncnc3onc(-c4ccc(F)cc4)c23)c1C`, the EC50 [3] is reported as > 167 µM (inactive).

In the case of `COc1ccc2c(=O)c3c(=O)n(-c4ccccc4)c(-c4ccc(C)cc4)nc3oc2c1`, the IC50 [4] is reported as > 0.541 µM (active).

For `O=C(Nc1ccc(C(F)(F)F)cc1)N1C[C@@H]2N[C@H](C1)[C@@H]2c1ccc(-c2cccc(F)c2)cc1`, the AC50 [5] was 3.45 µM (active), the AC50 [6] was 22.4 µM (active) and the AC50 [7] was 4.04 µM (active). The AC50 [8] was 3.52 µM (active).
